From US9487470B2, “4-((substituted phenyl) difluoromethyl) phenoxy carboxylic acid derivative, and preparation method and uses thereof” (Zhejiang Hisun Pharmaceutical Co., Ltd., priority 2012, dated 2016)

Key:
[1] = tested on: hyperlipoidemia model of Goldenhamsters (blood plasma TC, HDL-C, LDL-C); test: Pharmacological test group 2: effects on blood lipid levels of Goldenhamsters in hyperlipoidemia model; type: in vivo; details: for HDL-C, after administration / LDL-C, after administration / TC, after administration: 40 mg/kg intragastric, 1 week, high-lipid feed continued, asterisks = P vs before administration; for HDL-C, after administration / LDL-C, after administration / TC, after administration / HDL-C, before administration / LDL-C, before administration / TC, before administration: blood plasma, x±s; for HDL-C, before administration / LDL-C, before administration / TC, before administration: baseline of the group before administration, high-lipid feed 2 weeks, 6 animals
Description: Animals: 120 male Goldenhamsters, aged 8 weeks, body weight 80-100 g, provided by Vital River Laboratories, Beijing.
Kits: The kits for total cholesterol (TC) and high density lipoprotein cholesterol (HDL-C) were provided by SYSMEX, and the kits for low density lipoprotein cholesterol (LDL-C) were provided by Shanghai Kehua Bio-engineering Co., Ltd.
Apparatus: SYSMEX Automatic Biochemistry Analyzer, Bechman centrifuge, Setoris balance.
The animals were acclimatized and fed for 1 week, ad lib, light cycle was 10 h/14 h, and then feeds with high lipid content were fed to the animals (formulation: 0.3% cholesterol, 20% palm oil, and 79.7% basic feeds). The animals were fed for 2 weeks, and were fasted at 4:00 pm on the 14th day (fasted for 16 h). On the 15th day, the animals were anaesthetized with ethyl ether, weighted, and then 0.5 ml blood was collected from vena orbitalis posterior. The blood was anticoagulated with heparin, and was centrifugated at 5000 rpm for 10 min. The blood plasma was taken, and the levels of TC, HDL-C, and LDL-C in blood plasma were determined using automatic biochemistry analyzer.
During the administration, feeds with high lipid content were continuously fed to the animals. The animals were fed for 1 week, and were fasted at 4:00 pm on the 7th day. On the 8th day, the animals were anaesthetized with ethyl ether, weighted, and then 0.5 ml blood was collected from vena orbitalis posterior. The blood was anticoagulated with heparin, and was centrifugated at 5000 rpm for 10 min. The blood plasma was taken, and the levels of TC, HDL-C, and LDL-C in blood plasma were determined using automatic biochemistry analyzer.
The results were represented by x±s, and t test was employed for comparing the results obtained before and after administration.

[2] = Solubility in water (remark on the test drugs); type: physicochemical; details: formulated with 20% solutol
[3] = tested on: hyperlipoidemia model of Goldenhamsters (blood plasma TC, TG, HDL-C, LDL-C); test: Pharmacological test group 1: effects on blood lipid levels of Goldenhamsters in a hyperlipoidemia model; type: in vivo; details: for regulating effects on the levels of blood lipid (conclusion from table 2) / effect on TC, in comparison with the results before administration (in words) / therapeutic effect compared with fenofibrate (conclusion from table 2) / effect on HDL-C, in comparison with the results before administration (in words) / effect on TG, in comparison with the results before administration (in words): 40 mg/kg; for HDL-C, after administration / LDL-C, after administration / TC, after administration / TG, after administration: 40 mg/kg intragastric, 1 week, high-lipid feed continued, blood plasma, x±s, asterisks = P vs before administration; for effect on TC, in comparison with the results before administration (in words) / effect on HDL-C, in comparison with the results before administration (in words) / effect on TG, in comparison with the results before administration (in words): t test after vs before administration; for therapeutic effect compared with fenofibrate (conclusion from table 2): fenofibrate 40 mg/kg
Description: Animals: 134 male Goldenhamsters, aged 8 weeks, body weight 80-100 g, provided by Vital River Laboratories, Beijing. […] Kits: The kits for total cholesterol (TC), triglyceride (TG), and high density lipoprotein cholesterol (HDL-C) were provided by SYSMEX, and the kits for low density lipoprotein cholesterol (LDL-C) were provided by Shanghai Kehua Bio-engineering Co., Ltd. Apparatus: SYSMEX Automatic Biochemistry Analyzer, Bechman centrifuge, Setoris balance. The animals were acclimatized and fed for 1 week, ad lib, light cycle was 10 h/14 h, and then feeds with high lipid content were fed to the animals (formulation: 0.3% cholesterol, 20% palm oil, and 79.7% basic feeds). The animals were fed for 10 days, and were fasted at 4:00 pm on the 10th day (fasted for 16 h). On the 11th day, the animals were anaesthetized with ethyl ether, weighted, and then 0.5 ml blood was collected from vena orbitalis posterior. The blood was anticoagulated with heparin, and was centrifugated at 5000 rpm for 10 min. The blood plasma was taken, and the levels of TC, TG, HDL-C, and LDL-C in blood plasma were determined using automatic biochemistry analyzer. The animals were acclimatized and fed for 1 week, ad lib, light cycle was 10 h/14 h, and then feeds with high lipid content were fed to the animals (formulation: 0.3% cholesterol, 20% palm oil, and 79.7% basic feeds). The animals were fed for 2 weeks, and were fasted at 4:00 pm on the […] (fasted for 16 h). On the 22nd day, the animals were anaesthetized with ethyl ether, weighted, and then 0.5 ml blood was collected from vena orbitalis posterior. The blood was anticoagulated with heparin, and was centrifugated at 5000 rpm for 10 min. The blood plasma was taken, and the levels of TC, TG, HDL-C, and LDL-C in blood plasma were determined using automatic biochemistry analyzer. […] During the administration, feeds with high lipid content were continuously fed to the animals. The animals were fed for 1 week, and were fasted at 4:00 pm on the 7th day. On the 8th day, the animals were anaesthetized with ethyl ether, weighted, and then 0.5 ml blood was collected from vena orbitalis posterior. The blood was anticoagulated with heparin, and was centrifugated at 5000 rpm for 10 min. The blood plasma was taken, and the levels of TC, TG, HDL-C, and LDL-C in blood plasma were determined using automatic biochemistry analyzer. The results were represented by x±s, and t test was employed for comparing the results obtained before and after administration.

[4] = 40 mg/kg, t test after vs before administration

solubility in water [2]	Structure (SMILES)	regulating effects on the levels of blood lipid (conclusion from table 2) [3]	HDL-C, after administration [3]	LDL-C, after administration [3]	TC, after administration [3]	TG, after administration [3]	effect on TC, in comparison with the results before administration (in words) [3]	effect on TG, in comparison with the results before administration (in words) [3]	other results
insoluble	CC(C)OC(=O)C(C)(C)Oc1ccc(C(F)(F)c2cccc(Cl)c2)cc1 [HS003-011, Isopropyl 2-(4-((3-chlorophenyl)difluoromethyl)phenoxy)-2-methylpropionate]	–	–	–	–	–	–	–	blood lipid-regulating effects (conclusion from table 3) ([1]; 40 mg/kg): excellent blood lipid-regulating effects; HDL-C, after administration [1]: 1.93 ± 0.91; LDL-C, after administration [1]: 2.21 ± 0.91; TC, after administration [1]: 11.94 ± 2.71; effect on HDL-C, in comparison with the results before administration (in words) [1, 4]: increase; effect on LDL-C, in comparison with the results before administration (in words) [1, 4]: significantly decreases; HDL-C, before administration [1]: 1.46 ± 0.16; LDL-C, before administration [1]: 4.02 ± 1.34; TC, before administration [1]: 13.91 ± 2.34
–	CC(C)OC(=O)C(C)(C)Oc1ccc(C(F)(F)c2ccc(C(F)(F)F)cc2)cc1 [HS003-007, Isopropyl 2-(4-((4-trifluoromethylphenyl)difluoromethyl)phenoxy)-2-methylpropionate]	tend to the effects of significantly decreasing TG, TC, and LDL-C	2.99 ± 0.13	1.26 ± 0.22	7.42 ± 0.71	2.12 ± 0.43	significantly decreases	–	–
–	CCOC(=O)CCCOc1ccc(C(F)(F)c2ccc(Cl)cc2)cc1 [HS003-026, Ethyl 4-(4-((4-chlorophenyl)difluoromethyl)phenoxy)butyrate]	tend to the effect of significantly decreasing TG and increasing HDL-C	4.13 ± 0.32	1.69 ± 0.47	11.18 ± 1.6	0.82 ± 0.24	–	significantly decreases	therapeutic effect compared with fenofibrate (conclusion from table 2) [3]: outstanding therapeutic effects on decreasing TG, and are significantly superior to fenofibrate; effect on HDL-C, in comparison with the results before administration (in words) [3]: significantly increases
insoluble	Cc1ccccc1C(F)(F)c1ccc(OC(C)(C)C(=O)OC(C)C)cc1 [HS003-015, Isopropyl 2-(4-((2-methylphenyl)difluoromethyl)phenoxy)-2-methylpropionate]	–	–	–	–	–	–	–	HDL-C, after administration [1]: 1.77 ± 0.18; LDL-C, after administration [1]: 2.26 ± 1.03; TC, after administration [1]: 15.3 ± 3.74; effect on HDL-C, in comparison with the results before administration (in words) [1, 4]: significantly increases; HDL-C, before administration [1]: 1.54 ± 0.07; LDL-C, before administration [1]: 3.14 ± 1.22; TC, before administration [1]: 13.99 ± 2.3
insoluble	Cc1cccc(C(F)(F)c2ccc(OC(C)(C)C(=O)OC(C)C)cc2)c1 [HS003-012, Isopropyl 2-(4-((3-methylphenyl)difluoromethyl)phenoxy)-2-methylpropionate]	–	–	–	–	–	–	–	–
–	CC(C)OC(=O)C(C)(C)Oc1ccc(C(F)(F)c2ccccc2C(F)(F)F)cc1 [HS003-016, Isopropyl 2-(4-((2-trifluoromethylphenyl)difluoromethyl)phenoxy)-2-methylpropionate]	tend to the effects of significantly decreasing TG, TC, and LDL-C	3.40 ± 0.32	1.0 ± 0.23	8.44 ± 1.12	1.23 ± 0.42	significantly decreases	–	–
–	O=C(COc1ccc(C(F)(F)c2ccc(Cl)cc2)cc1)OCc1ccccc1 [HS003-021, Benzyl 2-(4-((4-chlorophenyl)difluoromethyl)phenoxy)-acetate]	tend to the effect of significantly decreasing TG and increasing HDL-C	4.46 ± 0.23	2.08 ± 0.89	13.37 ± 3.3	1.1 ± 0.53	–	significantly decreases	effect on HDL-C, in comparison with the results before administration (in words) [3]: significantly increases
–	COC(=O)c1ccc(C(F)(F)c2ccc(OC(C)(C)C(=O)OC(C)C)cc2)cc1 [HS003-017, Isopropyl 2-(4-((4-methoxyacylphenyl)difluoromethyl)phenoxy)-2-methylpropionate]	tend to the effect of significantly decreasing TG and increasing HDL-C	4.09 ± 0.18	1.41 ± 0.34	11.61 ± 1.42	0.81 ± 0.15	–	significantly decreases	therapeutic effect compared with fenofibrate (conclusion from table 2) [3]: outstanding therapeutic effects on decreasing TG, and are significantly superior to fenofibrate
–	CC(C)OC(=O)C(C)(C)Oc1ccc(C(F)(F)c2ccc(F)cc2)cc1 [HS003-006, Isopropyl 2-(4-((4-fluorophenyl)difluoromethyl)phenoxy)-2-methylpropionate]	tend to the effects of significantly decreasing TG, TC, and LDL-C	3.64 ± 0.31	1.02 ± 0.27	8.96 ± 0.77	1.06 ± 0.29	significantly decreases	significantly decreases	effect on HDL-C, in comparison with the results before administration (in words) [3]: increases
insoluble	Cc1cc(OC(C)(C)C(=O)OC(C)C)ccc1C(F)(F)c1ccc(Cl)cc1 [HS003-019, Isopropyl 2-(4-((4-chlorophenyl)difluoromethyl)-3-methylphenoxy)-2-methylpropionate]	–	–	–	–	–	–	–	blood lipid-regulating effects (conclusion from table 3) ([1]; 40 mg/kg): excellent blood lipid-regulating effects; HDL-C, after administration [1]: 1.84 ± 0.21; LDL-C, after administration [1]: 1.83 ± 0.56; TC, after administration [1]: 10.62 ± 1.02; therapeutic effect compared with fenofibrate (conclusion from table 3) ([1]; 40 mg/kg, fenofibrate 40 mg/kg): outstanding therapeutic effects, and are superior to fenofibrate; effect on LDL-C, in comparison with the results before administration (in words) [1, 4]: significantly decreases; effect on TC, in comparison with the results before administration (in words) [1, 4]: significantly decreases; HDL-C, before administration [1]: 1.67 ± 0.22; LDL-C, before administration [1]: 3.12 ± 1.47; TC, before administration [1]: 13.99 ± 2.28
–	CC(C)OC(=O)C(C)(C)Oc1ccc(C(F)(F)c2cccc(C(F)(F)F)c2)cc1 [HS003-013, Isopropyl 2-(4-((3-trifluoromethylphenyl)difluoromethyl)phenoxy)-2-methylpropionate]	tend to the effects of significantly decreasing TG, TC, and LDL-C	3.12 ± 0.25	1.46 ± 0.46	8.93 ± 0.53	1.84 ± 0.45	significantly decreases	–	–
insoluble	Cc1ccc(C(F)(F)c2ccc(OC(C)(C)C(=O)OC(C)C)cc2)cc1 [HS003-009, Isopropyl 2-(4-((4-methylphenyl)difluoromethyl)phenoxy)-2-methylpropionate]	–	–	–	–	–	–	–	–
